Experimental data as given in PubChem BioAssay AID504356 (Broad Institute, 2011).
Calls of active or inactive are those of the source.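 Rule for the calls: active = curve reaching 10% of positive control caspase signal at or below the top valid tested dose; inactive = opposite-direction activity, or no crossing across tested range.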

What was measured:
[1] = test system: MEWO A1-expressing, TSA primed, caspase-Glo luminescence, 3 h; assay: caspase-Glo signal rise in Trichostatin-treated MEWO cells – cell-based, Trichostatin A primed, luminescence, set 2, orthogonal assay for A1 inhibitor project, dose response (AID 504356)
[2] = as above; conditions: MEWO A1-expressing, TSA primed, caspase-Glo luminescence, 3 h, hits give high values

Question: For `Cc1ccc(Sc2c([N+](=O)[O-])c(=O)n(C)c3ccccc23)cc1`, which AC10 [1] is on record?
Answer: > 30 µM (inactive)

Question: With `O=c1oc2ccccc2c(Sc2ccccc2)c1[N+](=O)[O-]` as the molecule, how does the max caspase activation ([2]; at 30 µM) read?
Answer: -5.41% (inactive)

Question: For `O=[N+]([O-])c1cnc2ccccc2c1Sc1ccccc1`, which AC10 [1] is on record?
Answer: > 30 µM (inactive)

Question: For `Cc1ccc(Nc2c([N+](=O)[O-])c(=O)oc3ccccc23)cc1`, which max caspase activation ([2]; at 16 µM) is on record?
Answer: 1.85% (inactive)

Question: With `O=c1oc2ccccc2c(Nc2cc(Cl)cc(Cl)c2)c1[N+](=O)[O-]` as the molecule, how does the max caspase activation ([2]; at 0.12 µM) read?
Answer: 2.71% (inactive)

Question: Which max caspase activation ([2]; at 0.235 µM) does the source give for `Cn1c(=O)c([N+](=O)[O-])c(Nc2ccc(Cl)cc2)c2ccccc21` here?
Answer: 3.04% (inactive)

Question: With `O=C(Oc1cccc(/C=N/Nc2nc(Nc3ccccc3)nc(N3CCOCC3)n2)c1)c1ccco1` as the molecule, how does the max caspase activation ([2]; at 3.8 µM) read?
Answer: 2.46% (inactive)

Question: With `CCOCCCNc1c([N+](=O)[O-])c(=O)n(C)c2ccccc12` as the molecule, how does the max caspase activation ([2]; at 8 µM) read?
Answer: 1.97% (inactive)

Question: With `CN1C(=O)C(C)(C)N(Cc2ccccc2)c2ccccc21` as the molecule, how does the max caspase activation ([2]; at 16 µM) read?
Answer: -0.643% (inactive)

Question: For `Cn1c(=O)c([N+](=O)[O-])c(Cl)c2ccccc21`, which max caspase activation ([2]; at 8 µM) is on record?
Answer: 9.18% (inactive)

Question: Which max caspase activation ([2]; at 0.5 µM) does the source give for `Cc1ccc(Nc2c([N+](=O)[O-])c(=O)n(C)c3ccccc23)cc1` here?
Answer: 1.48% (inactive)

Question: For `Cn1c(=O)c([N+](=O)[O-])c(-n2cnc3ccccc32)c2ccccc21`, which AC10 [1] is on record?
Answer: > 30 µM (inactive)

Question: With `O=c1oc2ccccc2c(N2CCCCC2)c1[N+](=O)[O-]` as the molecule, how does the max caspase activation ([2]; at 0.235 µM) read?
Answer: -1.97% (inactive)

Question: Which max caspase activation ([2]; at 30 µM) does the source give for `Cn1c(=O)c([N+](=O)[O-])c(Oc2ccccc2)c2ccccc21` here?
Answer: 2.08% (inactive)

Question: Which max caspase activation ([2]; at 30 µM) does the source give for `C/C1=C/C(=O)O[C@@H]2C[C@@H](CC[C@H](C)/C=C\CC1)O[C@@](O)(C1CSC(=O)N1)C2` (stereo partly specified) here?
Answer: 2.64% (inactive)

Question: Which max caspase activation ([2]; at 16 µM) does the source give for `Cc1ccc(Sc2c([N+](=O)[O-])c(=O)oc3ccccc23)cc1` here?
Answer: -4.17% (inactive)

Question: With `Cc1ccc(Sc2c([N+](=O)[O-])cnc3ccccc23)cc1` as the molecule, how does the AC10 [1] read?
Answer: 24.9 µM

Question: For `CCSc1c([N+](=O)[O-])c(=O)oc2ccccc12`, which max caspase activation ([2]; at 8 µM) is on record?
Answer: 2.46% (inactive)

Question: For `Cc1ccc(Sc2cc(=O)n(C)c3ccccc23)cc1`, which max caspase activation ([2]; at 30 µM) is on record?
Answer: -5.85% (inactive)

Question: With `O=c1oc2ccccc2c(Cl)c1[N+](=O)[O-]` as the molecule, how does the max caspase activation ([2]; at 30 µM) read?
Answer: -5.13% (inactive)

Question: Which max caspase activation ([2]; at 8 µM) does the source give for `CCOC(=O)N1CCN(c2c([N+](=O)[O-])c(=O)n(C)c3ccccc23)CC1` here?
Answer: 0.764% (inactive)
